“And” between values parts separate entries of the source, which are not always exact repeats. Equal entries are not always repeated.
Assay: xn = mol fraction of the nth substance listed
Conditions: Gas, Buoyancy - hydrostatic balance with magnetic suspension - one sinker

N#N [nitrogen] + C
Conditions	mass density
299.91 K, 7416.3 kPa, x2 = 0.8	59.8697 kg/m3
299.91 K, 7417.6 kPa, x2 = 0.8	59.8813 kg/m3
299.91 K, 9999.1 kPa, x2 = 0.8	82.4744 kg/m3
299.91 K, 10000 kPa, x2 = 0.8	82.4859 kg/m3
299.91 K, 10001 kPa, x2 = 0.8	82.4925 kg/m3
299.91 K, 12313 kPa, x2 = 0.8	102.883 kg/m3
299.91 K, 12314 kPa, x2 = 0.8	102.89 kg/m3
299.91 K, 14412 kPa, x2 = 0.8	121.138 kg/m3 and 121.127 kg/m3
299.91 K, 16342 kPa, x2 = 0.8	137.386 kg/m3
299.91 K, 16343 kPa, x2 = 0.8	137.395 kg/m3
299.92 K, 2421.7 kPa, x2 = 0.8	18.4741 kg/m3
299.92 K, 4995 kPa, x2 = 0.8	39.3048 kg/m3
299.92 K, 9109.5 kPa, x2 = 0.8	74.6412 kg/m3
299.99 K, 13043 kPa, x2 = 0.8998	105.072 kg/m3
299.99 K, 15058 kPa, x2 = 0.8998	122.114 kg/m3 and 122.112 kg/m3
299.99 K, 17101 kPa, x2 = 0.8998	138.717 kg/m3 and 138.72 kg/m3
299.99 K, 19357 kPa, x2 = 0.8998	155.97 kg/m3
299.99 K, 19358 kPa, x2 = 0.8998	155.975 kg/m3
300 K, 899.61 kPa, x2 = 0.8998	6.30257 kg/m3
300 K, 2023 kPa, x2 = 0.8998	14.4126 kg/m3
300 K, 2023.1 kPa, x2 = 0.8998	14.4136 kg/m3
300 K, 2766.3 kPa, x2 = 0.8998	19.9248 kg/m3
300 K, 4003.3 kPa, x2 = 0.8998	29.3523 kg/m3
300 K, 4948.9 kPa, x2 = 0.8998	36.7656 kg/m3
300 K, 5998.7 kPa, x2 = 0.8998	45.1981 kg/m3
300 K, 5998.9 kPa, x2 = 0.8998	45.2004 kg/m3
300 K, 6904.7 kPa, x2 = 0.8	55.4385 kg/m3
300 K, 6954.3 kPa, x2 = 0.8998	53.0353 kg/m3
300 K, 8009.1 kPa, x2 = 0.8998	61.855 kg/m3
300 K, 8009.7 kPa, x2 = 0.8998	61.8592 kg/m3
300 K, 9029.6 kPa, x2 = 0.8998	70.5133 kg/m3 and 70.5136 kg/m3
300 K, 9030 kPa, x2 = 0.8998	70.5158 kg/m3
300 K, 10050 kPa, x2 = 0.8998	79.2704 kg/m3
300 K, 11034 kPa, x2 = 0.8998	87.7596 kg/m3
300 K, 12063 kPa, x2 = 0.8998	96.6441 kg/m3
300 K, 12064 kPa, x2 = 0.8998	96.6562 kg/m3
300 K, 12996 kPa, x2 = 0.8998	104.673 kg/m3
300 K, 14010 kPa, x2 = 0.8998	113.319 kg/m3
300 K, 14012 kPa, x2 = 0.8998	113.335 kg/m3
300 K, 16021 kPa, x2 = 0.8998	130.057 kg/m3
300 K, 16023 kPa, x2 = 0.8998	130.071 kg/m3
300 K, 17936 kPa, x2 = 0.8998	145.268 kg/m3
300 K, 17939 kPa, x2 = 0.8998	145.292 kg/m3
300 K, 20071 kPa, x2 = 0.8998	161.173 kg/m3
300 K, 20074 kPa, x2 = 0.8998	161.19 kg/m3
300.01 K, 19196 kPa, x2 = 0.8	160.005 kg/m3
349.98 K, 2438.8 kPa, x2 = 0.8	15.6874 kg/m3
349.98 K, 4939.5 kPa, x2 = 0.8	32.1898 kg/m3
349.98 K, 17023 kPa, x2 = 0.8	112.695 kg/m3
349.99 K, 2438.9 kPa, x2 = 0.8	15.6871 kg/m3
349.99 K, 4939.9 kPa, x2 = 0.8	32.193 kg/m3
349.99 K, 7493.5 kPa, x2 = 0.8	49.3399 kg/m3
349.99 K, 7494.4 kPa, x2 = 0.8	49.3451 kg/m3
349.99 K, 8821.7 kPa, x2 = 0.8	58.3187 kg/m3
349.99 K, 8822.8 kPa, x2 = 0.8	58.3243 kg/m3
349.99 K, 12241 kPa, x2 = 0.8	81.3717 kg/m3
349.99 K, 12243 kPa, x2 = 0.8	81.3884 kg/m3
349.99 K, 14938 kPa, x2 = 0.8	99.2371 kg/m3
349.99 K, 14942 kPa, x2 = 0.8	99.2671 kg/m3
349.99 K, 17029 kPa, x2 = 0.8	112.731 kg/m3
350 K, 1986.4 kPa, x2 = 0.8998	11.9478 kg/m3
350 K, 1986.5 kPa, x2 = 0.8998	11.9485 kg/m3
350 K, 3975.2 kPa, x2 = 0.8998	24.2393 kg/m3
350 K, 5966.2 kPa, x2 = 0.8998	36.8151 kg/m3
350 K, 8018.7 kPa, x2 = 0.8998	49.9871 kg/m3
350 K, 10026 kPa, x2 = 0.8998	62.975 kg/m3
350 K, 12032 kPa, x2 = 0.8998	75.9524 kg/m3
350 K, 12033 kPa, x2 = 0.8998	75.9539 kg/m3
350 K, 13967 kPa, x2 = 0.8998	88.3679 kg/m3
350 K, 13968 kPa, x2 = 0.8998	88.373 kg/m3
350 K, 16066 kPa, x2 = 0.8998	101.591 kg/m3
350 K, 16068 kPa, x2 = 0.8998	101.601 kg/m3
350 K, 16070 kPa, x2 = 0.8998	101.613 kg/m3
350 K, 16189 kPa, x2 = 0.8998	102.36 kg/m3
350 K, 18024 kPa, x2 = 0.8998	113.606 kg/m3
350 K, 19983 kPa, x2 = 0.8998	125.244 kg/m3
350 K, 19984 kPa, x2 = 0.8998	125.244 kg/m3
350.01 K, 8197.7 kPa, x2 = 0.8	54.0918 kg/m3
350.01 K, 8197.9 kPa, x2 = 0.8	54.0933 kg/m3
350.01 K, 10149 kPa, x2 = 0.8	67.2887 kg/m3
350.01 K, 11859 kPa, x2 = 0.8	78.8049 kg/m3
350.01 K, 11862 kPa, x2 = 0.8	78.8216 kg/m3
400 K, 4571.9 kPa, x2 = 0.8	25.5965 kg/m3
400 K, 5986.1 kPa, x2 = 0.8998	31.5654 kg/m3
400 K, 8029.2 kPa, x2 = 0.8998	42.4672 kg/m3
400 K, 9750.2 kPa, x2 = 0.8	54.7419 kg/m3
400 K, 12023 kPa, x2 = 0.8998	63.6651 kg/m3
400 K, 13644 kPa, x2 = 0.8	76.2876 kg/m3
400 K, 14030 kPa, x2 = 0.8998	74.1643 kg/m3
400 K, 18095 kPa, x2 = 0.8998	94.8699 kg/m3
400 K, 18098 kPa, x2 = 0.8998	94.8835 kg/m3
400 K, 19369 kPa, x2 = 0.8998	101.162 kg/m3
400.01 K, 2027.7 kPa, x2 = 0.8998	10.5861 kg/m3
400.01 K, 4038.9 kPa, x2 = 0.8998	21.2078 kg/m3
400.01 K, 4040.2 kPa, x2 = 0.8998	21.2133 kg/m3
400.01 K, 8029.4 kPa, x2 = 0.8998	42.4641 kg/m3
400.01 K, 10035 kPa, x2 = 0.8998	53.1468 kg/m3 and 53.1474 kg/m3
400.01 K, 14024 kPa, x2 = 0.8998	74.1363 kg/m3
400.01 K, 15973 kPa, x2 = 0.8998	84.171 kg/m3
400.01 K, 15985 kPa, x2 = 0.8998	84.2306 kg/m3
400.01 K, 19362 kPa, x2 = 0.8998	101.12 kg/m3
400.07 K, 1968.6 kPa, x2 = 0.8	10.9663 kg/m3
400.07 K, 5054.8 kPa, x2 = 0.8	28.3114 kg/m3
400.07 K, 7579.8 kPa, x2 = 0.8	42.5457 kg/m3
400.07 K, 7586.8 kPa, x2 = 0.8	42.5825 kg/m3
400.07 K, 10122 kPa, x2 = 0.8	56.8069 kg/m3
400.07 K, 10130 kPa, x2 = 0.8	56.8516 kg/m3
400.07 K, 13112 kPa, x2 = 0.8	73.3611 kg/m3
400.07 K, 13116 kPa, x2 = 0.8	73.3802 kg/m3
400.07 K, 13262 kPa, x2 = 0.8	74.1822 kg/m3
400.07 K, 15317 kPa, x2 = 0.8	85.3273 kg/m3
400.07 K, 15324 kPa, x2 = 0.8	85.3629 kg/m3
400.07 K, 17285 kPa, x2 = 0.8	95.7881 kg/m3
400.07 K, 17324 kPa, x2 = 0.8	95.9938 kg/m3
